{"source": "patent US11771645B2", "about": "“Transdermally absorbable base material containing lipid peptide compound” (KYUSHU UNIVERSITY, priority 2015, dated 2023)", "tested_on": "Yucatan Micro Pig (YMP) skin", "experiment": "Skin permeability test, fluorescently-labeled insulin in skin extract and receiver solution, vertical Franz type diffusion cell (Examples 8, 12, 14, 18)", "format": "in vitro ADME", "method": "Yucatan Micro Pig (YMP) skin (by Charles River Laboratories Japan, Inc.) stored at −80° C. was thawed at room temperature (roughly 25° C.), and was then subjected to the fat removal (to have a skin thickness of roughly 2 mm). Thus, the YMP skin of roughly 2 cm square was prepared.\nTo a receiver phase of the vertical Franz type diffusion cell (effective area: 0.785 cm^2), 5.0 mL of phosphate buffered saline (PBS of pH 7.4, stirred at 500 rpm) was added, and the above-described YMP skin (temperature of PBS on skin surface: 32.5° C.) was set. […]\nThe skin was taken out after 24 hours, and washed with the extractant [solution of PBS, acetonitrile, and methanol mixed at 2:1:1 (v/v/v)]. […] The extracted solution thus obtained was filtered using a PTFE filter (0.20 μm), and then, the quantity of the fluorescently-labeled insulin in the solution was determined using the fluorescence spectrometer LS-55 (manufactured by PerkinElmer, Inc.) (each calculated as the average value of three tests). The fluorescence spectrometer measurement was made at an excitation wavelength of 495 nm and a measurement wavelength of 521 nm. […]\nThe skin was taken out after 24 hours, and washed with the extractant [solution of PBS, acetonitrile, and methanol mixed at 2:1:1 (v/v/v)]. […] The fluorescence spectrometer measurement was made at an excitation wavelength of 495 nm and a measurement wavelength of 521 nm. […]"}
{"substance": "polyoxyethylene lauryl ether", "values": [{"measurement": "transdermal absorption enhancing effect of insulin", "result": "no transdermal absorption enhancing effect"}]}
